`COc1ccccc1C(=O)c1c(SC)nn(-c2c(Cl)cc(Cl)cc2Cl)c1N` [Example 3, 5-Amino-4-(2-methoxybenzoyl)-3-methylthio-1-(2,4,6-trichlorophenyl)pyrazole]: the melting point was 200 to 202 °C.
The same measure for `Cc1nn(-c2c(Cl)cc(Cl)cc2Cl)c(N)c1C(=O)c1ccccc1Cl` [Example 4, 5-Amino-4-(2-chlorobenzoyl)-3-methyl-1-(2,4,6-trichlorophenyl) pyrazole]: 222 °C.
